One series deals with A549. As to the kind of experiment: Antiproliferative activity against human A549 cells assessed as inhibition of cell growth incubated for 72 hrs by CCK8 assay. Conditions: A549, 72 h. Type of series: functional, cell-based. For orientation: Tetrazolium assays rely on reduction of a dye to a coloured formazan, in cell work by metabolically active cells.
The next series deals with PC-3. As to the kind of experiment: Antiproliferative activity against human PC-3 cells assessed as inhibition of cell growth incubated for 72 hrs by CCK8 assay. Type of series: functional, cell-based. Conditions: PC-3, 72 h.
The test system of another series is MCF7. As to the kind of experiment: Antiproliferative activity against human MCF7 cells assessed as inhibition of cell growth incubated for 72 hrs by CCK8 assay. Type of series: functional, cell-based. Particulars: MCF7, 72 h.
The nature of series [1]: Selectivity index, ratio of IC50 for antiproliferative activity against human MCF-10A cells to IC50 for antiproliferative activity against human MDA-MB-231 cells. Type of series: toxicity, cell-based. Conditions: MCF-10A cells and MDA-MB-231 cells, read-out: Ratio IC50.
In series [2] the test system is MDA-MB-231. In words: Antiproliferative activity against human MDA-MB-231 cells assessed as inhibition of cell growth at 1 to 4 uM by CCK8 assay. Type of series: functional, cell-based. Particulars: dose 1-4 µM, time 24-96 hrs, TDE = time-dependent effect.
In series [3] the test system is MDA-MB-231. In words: Induction of cell cycle arrest in human MDA-MB-231 cells assessed as accumulation of cells at G0/G1 phase at 2 uM incubated for 48 hrs by PI staining based flow cytometry (reference value: 48.33%). Type of series: functional. Background: In flow cytometry, cells or beads pass a laser one at a time.
For series [4], the system named is MDA-MB-231. As to the kind of experiment: Induction of apoptosis in human MDA-MB-231 cells assessed as increase in apoptotic cells at 1 uM incubated for 48 hrs by AnnexinV-FITC/PI staining based flow cytometry (reference value: 5.24%). Type of series: functional.
For series [5], the system named is MDA-MB-231. As to the kind of experiment: Induction of apoptosis in human MDA-MB-231 cells assessed as increase in cleaved caspase-8 protein expression at 1 to 4 uM incubated for 48 hrs by western blot analysis. Type of series: functional, cell-based. Conditions: dose 1-4 µM.
Series [6] has as its system MDA-MB-231. As to the kind of experiment: Induction of reactive oxygen species generation in human MDA-MB-231 cells at 1 uM incubated for 24 hrs by DCFH-DA staining based flow cytometry. Type of series: functional, cell-based.
Series [7] has as its system MDA-MB-231. In words: Induction of reactive oxygen species generation in human MDA-MB-231 cells at 4 uM incubated for 24 hrs by DCFH-DA staining based flow cytometry. Type of series: functional, cell-based.
The test system of series [8] is MDA-MB-231. As to the kind of experiment: Depletion of intracellular GSH content in human MDA-MB-231 cells at 2 uM incubated for 48 hrs relative to control. Type of series: functional.
For series [9], the system named is MDA-MB-231. In words: Increase in intracellular Ca2+ level in human MDA-MB-231 cells at 1 to 4 uM incubated for 48 hrs by Fluo-4AM dye based flow cytometry. Type of series: functional, cell-based. Conditions: dose 1-4 µM.
The test system of series [10] is MDA-MB-231. In words: Downregulation of Akt protein expression in human MDA-MB-231 cells at 2 uM incubated for 72 hrs in presence of IGF-1 by western blot analysis. Type of series: functional, cell-based. In general terms: A western blot detects proteins with antibodies after separation by electrophoresis.
Series [11] has as its system MDA-MB-231. In words: Induction of apoptosis in human MDA-MB-231 cells assessed as increase in apoptotic cells at 2 uM incubated for 72 hrs in presence of IGF-1 by AnnexinV-FITC/PI staining based flow cytometry. Type of series: functional.

Each structure is given as a SMILES string. Active and inactive are the calls of the source. No cut-off for these calls is given here.

For the compound `Fc1cc(F)cc(C2OCCc3c2[nH]c2ccccc32)c1` (centres undefined), the IC50 came to 14.8 µM in the series with A549, 9.04 µM in the series with PC-3 and 7.89 µM in the series on MCF7. Moreover, in series [1], the selectivity ratio turned out to be 10.8. Further, the Activity entry in the series on MDA-MB-231 [2] was “Tde”; in the series on MDA-MB-231 [3] it was 64%; in the series on MDA-MB-231 [4] it was 16.77%; in the series with MDA-MB-231 [11], 18.5%. Also, the outcome in the series on MDA-MB-231 [5], in the series with MDA-MB-231 [7] and in the series with MDA-MB-231 [9] was Active. The outcome with MDA-MB-231 [6] was inactive. For the same compound, the “fold change (FC)” value in the series with MDA-MB-231 [8] stood at 0.63. The inhibition entry in the series on MDA-MB-231 [10] is “inactive”.

One may read the IC50 as the concentration that inhibits the measured activity by half.
